{"source": "patent US20220304978A1", "about": "“INHIBITING MESANGIAL CELL ACTIVATION” (Chinook Therapeutics, Inc., priority 2019, published 2022)", "key": {"[1]": {"test_system": "primary human renal mesangial cells (HRMCs)", "assay": "Proliferation (BrdU) of HRMCs stimulated with IgA-containing immune complexes from IgAN patients", "assay_type": "cell-based", "details": "immune complexes purified from three patients with IgA nephropathy", "excerpt": "Primary human mesangial cells in a culture were stimulated with pathogenic galactose deficient (Gd)-IgA containing immune complexes isolated from human IgA nephropathy patients. […] Specifically, pathogenic IgA-containing immune complexes were isolated from serum from either IgA nephropathy patients or age, gender and ethnicity-matched healthy individuals. Frozen serum was purchased from BioIVT and IgA-containing immune complexes were purified using jacalin affinity chromatography. […] Purified IgA-containing immune complexes were concentrated using a 100K Amicon filtration unit and the amount of total IgA and galactose-deficient IgA (Gd-IgA) in the immune complexes was measured by ELISA (ThermoFisher and IBL America, respectively). […] See, e.g., Novak et. al., Kidney International, 67, pp. 504-516; 2005; Novak et. al., Nephrol. Dial. Transplant, 26, pp. 3451-3457; 2011; Liang et. al., Cell Physiol. Biochem., 36, pp. 1793-1808; 2015; Nguyen et. al., Clin. Kidney 1, 12 (2), pp, 232-238; 2019."}, "g-ddY mice": {"test_system": "g-ddY mice", "assay": "UACR (albuminuria) in g-ddY mouse model of IgA nephropathy", "assay_type": "in vivo", "excerpt": "The grouped ddY (g-ddY) mouse is a spontaneous model of early-onset IgA nephropathy characterized by IgA immune complex deposition in the mesangium of the kidney, leading to significant proteinuria, glomerular hypercellularity, mesangioproliferative glomerular lesions, glomerular sclerosis and reduced kidney function, all hallmarks of human IgA nephropathy (J Am Soc Nephrol 23: 1364-1374, 2012). Consistent with human IgA nephropathy, the mesangial IgA deposits in the g-ddY mouse are also accompanied by deposition of IgG and complement C3."}, "[2]": {"details": "20 and 30 mg/kg/day, approximately 5 days"}}, "note": "“Also recorded” adds a separate entry of the source.", "data": [{"smiles": "CCCCN(CCCC)C(=O)CN1C[C@H](c2ccc3c(c2)OCO3)[C@@H](C(=O)O)[C@@H]1c1ccc(OC)cc1", "note": "[atrasentan, (2R,3R,4S)-4-(1,3-benzodioxol-5-yl)-1-[2-(dibutylamino)-2-oxoethyl]-2-(4-methoxyphenyl)pyrrolidine-3-carboxylic acid]", "values": [{"measurement": "hyperproliferation of HRMCs induced by IgA containing immune complexes", "setting": "[1]", "result": "reduces the proliferation; also recorded: significantly attenuated"}, {"measurement": "effect to reduce UACR from baseline compared to the control group", "setting": "g-ddY mice; 10 mg/kg/day", "result": "not significant"}, {"measurement": "albuminuria compared to baseline", "setting": "g-ddY mice; 10 mg/kg/day, approximately 5 days", "result": "not significantly changed from baseline"}, {"measurement": "effect to reduce UACR from baseline compared to the control group", "setting": "g-ddY mice; 20 mg/kg/day, P=0.0498, un-paired t-test", "result": "statistically significant"}, {"measurement": "albuminuria compared to baseline", "setting": "g-ddY mice; 20 mg/kg/day, approximately 5 days, P=0.0593", "result": "reduced from baseline to a similar extent"}, {"measurement": "effect to reduce UACR from baseline compared to the control group", "setting": "g-ddY mice; 30 mg/kg/day, P=0.029", "result": "statistically significant"}, {"measurement": "albuminuria compared to baseline", "setting": "g-ddY mice; 30 mg/kg/day, approximately 5 days, paired t-test", "result": "significantly (P=0.0002, paired two-sided t-test) reduced"}, {"measurement": "albuminuria compared to control g-ddY mice", "setting": "g-ddY mice; [2]", "result": "significantly reduced"}, {"measurement": "albuminuria lowering, reduction from baseline", "setting": "g-ddY mice; [2]", "result": "> 60", "unit": "%"}]}]}
